# Where “and” joins values, the source holds several entries; their conditions need not be identical. Equal entries are not always repeated. Structures can show the parent of a compound that is named as a salt.
# Experiments:
# Herpes simplex 1 virus = tested on: Herpes simplex 1 virus; parameters: species or system white mice; conditions: mouse, in vivo
# serum interferon [1] = test: serum interferon titre in human volunteers; parameters: average geometrical interferon titre: dose or concentration left out as unconfirmed
# Experimental: (§1) The interferon titre is determined as follows: by the plaque-inhibition method in L-cells or in human embryonal diploid fibroblasts using the vesicular stomatite virus (Indiana strain) by a detector virus; by the cytopathic effect inhibition method of the same virus (using human embryonal diploid fibroblasts). It is expressed in IU/ml by comparing the reference preparations of mouse or human interferon.
# [2] = tested on: Mouse peritoneal leucocytes; test: cells; conditions: Leucocyte, read-out: MinIFN-IC (minimum interferon-inducing concentration)
# Experimental: (§2) In monolayer cellular cultures (L-cells, mouse embryonal fibroblasts, human diploid embryonal pulmonary fibroblasts), the interferon titre is measured and the antiviral resistance is simultaneously determined. […] Incubation of the cultures is carried out for 24 hours at 37° C.; The culture medium after determining its cytotoxicity microscopically is collected for the interferon titre measurement. The cells are rinsed in Hanks' saline solution and inoculated by 100 TCID50 virus of the vesicular stomatite (Indiana strain). The cytopathic effect and the infectious virus yield are specified the basis of which the state of the antiviral resistancy is determined.
# as §1
# [3] = tested on: Mouse embryonal fibroblasts; test: interferon induction in mouse embryonal fibroblasts
# Experimental: as §2, §1
# [4] = tested on: Human diploid embryonal fibroblasts
# Experimental: as §2, §1
# [5] = tested on: Human diploid embryonal fibroblasts; test: cells; conditions: Fibroblast, read-out: MinIFN-IC (minimum interferon-inducing concentration)
# Experimental: as §2, §1
# L-cells [6] = test: cells; conditions: Mus musculus, read-out: MinIFN-IC (minimum interferon-inducing concentration)
# Experimental: as §2, §1
# L-cells [7] = tested on: L-cells
# Experimental: as §2, §1
# influenza virus A = influenza virus A experimental infection in white mice; type: in vivo; conditions: oral or intraperitoneal single dose 24 h before, 24 or 72 h after inoculation
# Semliki virus = tested on: Semliki virus; parameters: species or system white mice; conditions: mouse, in vivo
# serum interferon [8] = test: interferon-inducing activity in vivo in white mice (serum interferon titre)
# Experimental: Serum samples for measuring the interferon titre are taken on the 6th, 12th, 24th, 48th, 72nd and 96th hour (mixed serum sample of minimum 8 animals).
# as §1
# acute toxicity (LD50) = test: acute toxicity (LD50); parameters: species or system white mice; conditions: mouse, in vivo; intravenous; read-out: single LD50
# [9] = tested on: some DNA and RNA-containing viruses; conditions: cellular cultures, background; cited from earlier work
# [10] = tested on: Mouse peritoneal leucocytes
# Experimental: as §2, §1
# [11] = internal / in vivo, background; cited from earlier work
# [12] = intravenous, 0.1 mg/kg, 48th hour
compound,measurement,setting,value
"OCCN(CCO)c1nc(N2CCCCC2)c2nc(N(CCO)CCO)nc(N3CCCCC3)c2n1 [Dipyridamole, 2,6-bis (diethanolamino)-4,8-dipiperidinopyramido [5,4-d]pyrimidine]",Lethality % M ± m,Herpes simplex 1 virus,55.0 ± 11.41%
same,Lethality No.,Herpes simplex 1 virus,11/20
same,Mean survival time,Herpes simplex 1 virus,17.3 ± 2.64 days
same,Protection coefficient,Herpes simplex 1 virus,1.81
same,antiviral effect in oral application vs intraperitoneal,Herpes simplex 1 virus,much stronger
same,protective effect,Herpes simplex 1 virus,marked protective effect
same,t,Herpes simplex 1 virus,3.94
same,"Mean serum interferon titre, positive responders",serum interferon [1]; 0 hours after administration (baseline),5.2 ± 1.7 IU/ml
same,subjects with marked raising of serum interferon level,"serum interferon [1]; 100 mg single oral dose, 20 men and women, 24th and 48th hour",80%
same,"Mean serum interferon titre, positive responders",serum interferon [1]; 24-48 hours after administration,1069.0 ± 479.7 IU/ml
same,increase of average geometrical interferon titres vs initial level,"serum interferon [1]; 24-48 hours, oral",Over 200 time
same,average geometrical interferon titre,"serum interferon [1]; 24-48 hours, oral single doses as printed",1069.0±479.7 IU/ml
same,"average geometrical interferon titre, initial level",serum interferon [1]; initial level before dipyridamole,5.2±1.7 IU/ml
same,treated subjects with marked interferon production,"serum interferon [1]; oral, single doses (1-2 mg/kg)",80%
same,minimal effective concentration,[2],3 µM
same,OptINF-IC (optimum interferon-inducing concentration),[3],300 micromol/1
same,minimal effective concentration,"[3]; Mus musculus, Fibroblast, read-out: MinIFN-IC (minimum interferon-inducing concentration)",100 µM
same,Maximum interferon titre,[3]; induced by OptINF-IC,16 IU/ml
same,Maximum interferon titre,[4],16-32
same,OptINF-IC (optimum interferon-inducing concentration),[4],100-300 micromol/1
same,minimal effective concentration,[5],10 µM
same,minimal effective concentration,L-cells [6],10 µM
same,Maximum interferon titre,L-cells [7],≥ 128 IU/ml
same,OptINF-IC (optimum interferon-inducing concentration),L-cells [7],30-300 micromol/1
same,induced interferon titre,L-cells [7],over 128 IU/ml
same,induced interferon titres,L-cells [7],exceed 128 IU/ml
same,interferon production compared with poly I:C,L-cells [7],markedly exceeds the interferon production of poly I:C
same,protective effect,influenza virus A,marked protective effect
same,Lethality % M ± m,Semliki virus,30.0 ± 15.27% and 40.0 ± 16.32%
same,Lethality No.,Semliki virus,3/10 and 4/10
same,Mean survival time,Semliki virus,22.6 ± 3.77 days and 20.7 ± 3.82 days
same,Protection coefficient,Semliki virus,2.4 and 1.8
same,antiviral effect in oral application vs intraperitoneal,Semliki virus,much stronger
same,protective effect,Semliki virus,marked protective effect
same,t,Semliki virus,3.02 and 2.64
same,preservation of high serum interferon levels,serum interferon [8]; even 96 hours after administration,relatively continuous preservation of the high interferon levels
same,time of peak interferon levels,"serum interferon [8]; intraperitoneal, 16.7 mg/kg",24 to 48 h
same,maximum titres / peak levels,"serum interferon [8]; intraperitoneal, 16.7 mg/kg, 24-48th hour",256 IU/ml
same,interferon concentrations until the 120th hour,"serum interferon [8]; intraperitoneal, 16.7 mg/kg, until 120th hour",Marked concentrations
same,interferon-inducing activity of lower doses,"serum interferon [8]; intraperitoneal, lower doses, under 0.1 mg/kg inclusive",lower but better marked activity
same,effective doses,"serum interferon [8]; intraperitoneal, ""or more""",0.1 to 16.7 mg/kg
same,effective doses,serum interferon [8]; intravenous,0.01 to 50 mg/kg
same,Interferon titre in serum,"serum interferon [8]; intravenous, 0.01 mg/kg, 72nd hour",16 IU/ml
same,Interferon titre in serum,"serum interferon [8]; intravenous, 0.05 mg/kg, 24th hour",< 4 IU/ml
same,Interferon titre in serum,"serum interferon [8]; intravenous, 0.05 mg/kg, 48th hour",64 IU/ml
same,Interferon titre in serum,"serum interferon [8]; intravenous, 0.05 mg/kg, 72nd hour",32 IU/ml
same,Interferon titre in serum,"serum interferon [8]; intravenous, 0.1 mg/kg, 6th hour",≤ 4 IU/ml
same,Interferon titre in serum,"serum interferon [8]; intravenous, 0.1 mg/kg, 12th hour",≤ 4 IU/ml
same,Interferon titre in serum,"serum interferon [8]; intravenous, 0.1 mg/kg, 24th hour",≤ 4 IU/ml
same,Interferon titre in serum,serum interferon [8]; [12],128 IU/ml
same,maximum titres,serum interferon [8]; [12],128 IU/ml
same,Interferon titre in serum,"serum interferon [8]; intravenous, 0.1 mg/kg, 72nd hour",32 IU/ml
same,Interferon titre in serum,"serum interferon [8]; intravenous, 0.2 mg/kg, 24th hour",≤ 4 IU/ml
same,Interferon titre in serum,"serum interferon [8]; intravenous, 0.2 mg/kg, 48th hour",32 IU/ml
same,Interferon titre in serum,"serum interferon [8]; intravenous, 0.2 mg/kg, 72nd hour",32 IU/ml
same,Interferon titre in serum,"serum interferon [8]; intravenous, 0.6 mg/kg, 6th hour",< 4 IU/ml
same,Interferon titre in serum,"serum interferon [8]; intravenous, 0.6 mg/kg, 12th hour",8 IU/ml
same,Interferon titre in serum,"serum interferon [8]; intravenous, 0.6 mg/kg, 24th hour",32 IU/ml
same,Interferon titre in serum,"serum interferon [8]; intravenous, 0.6 mg/kg, 48th hour",16 IU/ml
same,Interferon titre in serum,"serum interferon [8]; intravenous, 0.6 mg/kg, 72nd hour",16 IU/ml
same,Interferon titre in serum,"serum interferon [8]; intravenous, 1.8 mg/kg, 12th hour",16 IU/ml
same,Interferon titre in serum,"serum interferon [8]; intravenous, 1.8 mg/kg, 24th hour",16 IU/ml
same,Interferon titre in serum,"serum interferon [8]; intravenous, 1.8 mg/kg, 72nd hour",8 IU/ml
same,Interferon titre in serum,"serum interferon [8]; intravenous, 5.5 mg/kg, 12th hour",16 IU/ml
same,Interferon titre in serum,"serum interferon [8]; intravenous, 5.5 mg/kg, 24th hour",16 IU/ml
same,Interferon titre in serum,"serum interferon [8]; intravenous, 17.7 mg/kg, 12th hour",32 IU/ml
same,Interferon titre in serum,"serum interferon [8]; intravenous, 17.7 mg/kg, 24th hour",16 IU/ml
same,Interferon titre in serum,"serum interferon [8]; intravenous, 50.0 mg/kg, 12th hour",8 IU/ml
same,Interferon titre in serum,"serum interferon [8]; intravenous, 50.0 mg/kg, 24th hour",8(4) IU/ml
same,time of maximum interferon levels,"serum interferon [8]; intravenous, higher doses than 0.1 mg/kg",12 to 24 h
same,time of maximum titres,serum interferon [8]; oral,24 to 48 h
same,serum interferon level at 12th hour,"serum interferon [8]; oral, 6.25-100 mg/kg, 12th hour",128-256 IU/ml
same,peak serum interferon values,"serum interferon [8]; oral, 12.5 or 25 mg/kg, 48th hour",4096-8192 IU/ml
same,maximum serum interferon titres,"serum interferon [8]; oral, 24-48 hour",4096-8192 IU/ml
same,interferon levels at 120th hour,serum interferon [8]; oral,marked interferon levels in the blood
same,interferon levels at 120th hour,"serum interferon [8]; oral, listed as dipyridamole",higher than those in the control (placebo) group
same,serum interferon level at 12th hour,"serum interferon [8]; oral, single doses, 12th hour",128-256 IU/ml
same,LD50,acute toxicity (LD50),150 mg/kg
same,antiviral effect in in vitro testing,[9],antiviral effect
same,Maximum interferon titre,[10],≥ 256 IU/ml
same,OptINF-IC (optimum interferon-inducing concentration),[10],100-1000
same,interferon titre compared with double-stranded RNA of phage f2,[10],higher than that induced by double-stranded RNA of phague f2 of E. coli
same,optimum interferon-inducing concentration,[10],100 µM
CCN(CC)CCOc1ccc2c(c1)C(=O)c1cc(OCCN(CC)CC)ccc1-2 [tilorone-hydrochloride],toxicity,[11],toxic and unsuitable for clinical application
poly I:C,toxicity,[11],toxic internally

# Reference: US4499093A, “Interferon induction method” (Dso "Pharmachim", priority 1982, dated 1985)
